Legend:
Format in all cases: physicochemical
[1] = Solid-state stability at higher temperature
Experimental: Tamsulosin adipate dihydrate from Example 9 (1.0 g), is heated at 80 °C for 24 h to give a glassy solid which is crushed and homogenised.

[2] = Solid-state stability at ambient and at low relative humidity
Experimental: Tamsulosin adipate dihydrate from Example 9 (1.0 g), is stayed in an open dish in an airtight chamber at temperature of 25 °C and relative humidity of below 10 % (achieved by means of dry desiccant) for 3 days.

[3] = Solubility in water, relative between solid forms; details: 60-100 ml of water per gram of the salt, room temperature; compared with anhydrous or amorphous tamsulosin adipate
Experimental: In another embodiment of the invention tamsulosin adipate dihydrate can be prepared also from water solutions from more soluble forms of tamsulosin adipate (anhydrous or amorphous). Depending on kinetic factors two polymorphs of tamsulosin adipate dihydrate can be obtained. In another embodiment tamsulosin adipate (anhydrous or amorphous) is dissolved in a small amount of water, preferably in 60-100 ml of water per gram of the salt, most preferably in 80-90 ml per gram, preferably at room temperature. Less soluble dihydrate spontaneously precipitates from the solution, yielding tamsulosin adipate dihydrate, characterized by the peaks at about 2θ= 10.2, 10.5, 13.5, 15.5, 16.3, 21.1, 21.9° 24.3, 25.2, 28.3 and 35.9° particularly characteristic peaks are 15.5, 21.9°, 28.3, and 35.9°.

[4] = Solubility in lower alcohols compared with tamsulosin hydrochloride; details: compared with commercially available tamsulosin hydrochloride
Description: The adipate forms of tamsulosin prepared according to the present invention have favourable solubility properties. […] This property could be an indicator for better interactions with less polar surfaces (e.g. lipid barriers) and allows more homogeneous preparation of pharmaceutical preparations in which tamsulosin should be homogenously mixed with lipophilic excipients (such as in preparation of transdermal dosage forms). The adipate anion has been shown physiologically acceptable. The tamsulosin adipate has therefore appropriate properties for smooth interaction with hydrophilic and lipophilic surfaces.

| Compound | solid form after heating (XRPD) ([1]; 80 °C for 24 h) | stability at higher temperatures ([1]; preferably above 70 °C, most preferably above 80 °C) | stability in extremely dry conditions ([2]; below 20 % relative humidity, preferably below 10 %) | stability under normal ambient conditions ([2]; normal ambient conditions) | solid form after storage at low humidity (XRPD) ([2]; open dish, airtight chamber, 25 °C, relative humidity below 10 %, 3 days) | solubility in water relative to other forms [3] | solubility in lower alcohols [4] |
| --- | --- | --- | --- | --- | --- | --- | --- |
| CCOc1ccccc1OCCN[C@H](C)Cc1ccc(OC)c(S(N)(=O)=O)c1 [Tamsulosin adipate dihydrate, tamsulosin adipate dihydrate form A] | amorphous material with traces of anhydrous crystalline form | loses water | loses water | stable | amorphous material | Less soluble |  |
| CCOc1ccccc1OCCN[C@H](C)Cc1ccc(OC)c(S(N)(=O)=O)c1 [Tamsulosin adipate, tamsulosin adipate] |  |  |  |  |  |  | more soluble in lower alcohols, than the commercially available tamsulosin hydrochloride |
